Results published in patent US20260265238A1, “COMPOUNDS AND PHARMACEUTICAL COMPOSITIONS THAT DEGRADE SWI/SNF-RELATED MATRIX-ASSOCIATED ACTIN-DEPENDENT REGULATOR OF CHROMATIN SUBFAMILY A” (Plexium, Inc., priority 2023, published 2026).

Experiments:
[1] = biological target: T1, SMARCA2-HiBiT HeLa cells (protein which is expressed from the SMARCA2 gene) (Homo sapiens, UniProt P51531); assay: SMARCA2 degradation assay (HiBiT-fusion HeLa cell line, 24 h, luminescence); format: cell-based
T1 construct: protein which is expressed from the SMARCA2 and SMARCA4 genes; host or cells: HeLa (SMARCA2-HiBiT engineered line)
T1 sequence (P51531 whole entry, the tested form may be a part): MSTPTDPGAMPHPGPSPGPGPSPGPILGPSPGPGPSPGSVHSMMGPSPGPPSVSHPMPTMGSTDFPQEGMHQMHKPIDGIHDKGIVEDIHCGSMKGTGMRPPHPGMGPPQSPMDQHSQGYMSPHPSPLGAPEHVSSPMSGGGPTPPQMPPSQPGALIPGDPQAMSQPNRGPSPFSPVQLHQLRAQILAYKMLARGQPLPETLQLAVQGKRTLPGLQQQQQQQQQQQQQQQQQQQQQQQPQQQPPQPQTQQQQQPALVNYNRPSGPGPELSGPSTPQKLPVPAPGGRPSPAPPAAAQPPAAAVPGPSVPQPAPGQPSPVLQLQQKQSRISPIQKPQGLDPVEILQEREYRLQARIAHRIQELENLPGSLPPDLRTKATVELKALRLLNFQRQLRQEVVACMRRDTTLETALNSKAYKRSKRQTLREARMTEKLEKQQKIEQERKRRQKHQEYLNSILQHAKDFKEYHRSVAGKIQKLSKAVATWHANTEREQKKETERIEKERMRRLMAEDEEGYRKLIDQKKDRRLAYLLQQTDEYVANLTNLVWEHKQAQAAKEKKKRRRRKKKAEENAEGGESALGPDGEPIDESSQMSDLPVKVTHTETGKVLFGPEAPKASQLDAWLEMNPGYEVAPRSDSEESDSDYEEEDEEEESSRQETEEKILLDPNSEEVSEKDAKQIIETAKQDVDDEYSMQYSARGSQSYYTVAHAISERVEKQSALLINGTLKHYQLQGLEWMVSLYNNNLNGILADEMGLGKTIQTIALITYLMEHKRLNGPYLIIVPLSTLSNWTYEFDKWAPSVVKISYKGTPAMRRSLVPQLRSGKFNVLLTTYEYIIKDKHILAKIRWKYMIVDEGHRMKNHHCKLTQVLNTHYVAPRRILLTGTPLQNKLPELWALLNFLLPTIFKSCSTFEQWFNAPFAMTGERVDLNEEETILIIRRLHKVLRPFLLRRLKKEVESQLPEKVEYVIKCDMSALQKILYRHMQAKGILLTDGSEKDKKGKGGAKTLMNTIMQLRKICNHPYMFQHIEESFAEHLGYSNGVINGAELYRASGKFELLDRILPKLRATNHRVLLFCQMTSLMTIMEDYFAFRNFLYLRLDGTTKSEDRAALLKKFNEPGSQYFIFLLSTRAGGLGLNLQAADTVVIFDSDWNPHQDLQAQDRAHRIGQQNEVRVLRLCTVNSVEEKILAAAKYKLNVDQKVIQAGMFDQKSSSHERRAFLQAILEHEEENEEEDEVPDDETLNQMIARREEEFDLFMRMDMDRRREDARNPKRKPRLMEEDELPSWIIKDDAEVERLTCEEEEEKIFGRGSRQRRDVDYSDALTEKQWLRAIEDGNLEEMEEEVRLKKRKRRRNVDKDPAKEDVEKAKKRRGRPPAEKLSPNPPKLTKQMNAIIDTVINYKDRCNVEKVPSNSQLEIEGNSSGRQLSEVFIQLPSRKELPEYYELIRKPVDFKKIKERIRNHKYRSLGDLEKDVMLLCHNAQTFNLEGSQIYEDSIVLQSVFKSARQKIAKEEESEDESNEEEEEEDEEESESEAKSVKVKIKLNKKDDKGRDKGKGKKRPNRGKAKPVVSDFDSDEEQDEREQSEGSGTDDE
Summary of the method: (§1)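 SMARCA2- or SMARCA4-HiBiT HeLa cells seeded overnight at 37° C, then given compound as a 10-point dilution (typically 10 μM to 300 pM) for 24 h at 37° C. Protein level read by HiBiT lytic detection luminescence; DC50 from dose-response curves; degradation also scored at 1 μM.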

[2] = biological target: T2, SMARCA4-HiBiT HeLa cells (protein which is expressed from the SMARCA4 gene) (Homo sapiens, UniProt P51532); assay: SMARCA4 degradation assay (HiBiT-fusion HeLa cell line, 24 h, luminescence); format: cell-based
T2 construct: protein which is expressed from the SMARCA2 and SMARCA4 genes; host or cells: HeLa (SMARCA4-HiBiT engineered line)
T2 sequence (P51532 whole entry, the tested form may be a part): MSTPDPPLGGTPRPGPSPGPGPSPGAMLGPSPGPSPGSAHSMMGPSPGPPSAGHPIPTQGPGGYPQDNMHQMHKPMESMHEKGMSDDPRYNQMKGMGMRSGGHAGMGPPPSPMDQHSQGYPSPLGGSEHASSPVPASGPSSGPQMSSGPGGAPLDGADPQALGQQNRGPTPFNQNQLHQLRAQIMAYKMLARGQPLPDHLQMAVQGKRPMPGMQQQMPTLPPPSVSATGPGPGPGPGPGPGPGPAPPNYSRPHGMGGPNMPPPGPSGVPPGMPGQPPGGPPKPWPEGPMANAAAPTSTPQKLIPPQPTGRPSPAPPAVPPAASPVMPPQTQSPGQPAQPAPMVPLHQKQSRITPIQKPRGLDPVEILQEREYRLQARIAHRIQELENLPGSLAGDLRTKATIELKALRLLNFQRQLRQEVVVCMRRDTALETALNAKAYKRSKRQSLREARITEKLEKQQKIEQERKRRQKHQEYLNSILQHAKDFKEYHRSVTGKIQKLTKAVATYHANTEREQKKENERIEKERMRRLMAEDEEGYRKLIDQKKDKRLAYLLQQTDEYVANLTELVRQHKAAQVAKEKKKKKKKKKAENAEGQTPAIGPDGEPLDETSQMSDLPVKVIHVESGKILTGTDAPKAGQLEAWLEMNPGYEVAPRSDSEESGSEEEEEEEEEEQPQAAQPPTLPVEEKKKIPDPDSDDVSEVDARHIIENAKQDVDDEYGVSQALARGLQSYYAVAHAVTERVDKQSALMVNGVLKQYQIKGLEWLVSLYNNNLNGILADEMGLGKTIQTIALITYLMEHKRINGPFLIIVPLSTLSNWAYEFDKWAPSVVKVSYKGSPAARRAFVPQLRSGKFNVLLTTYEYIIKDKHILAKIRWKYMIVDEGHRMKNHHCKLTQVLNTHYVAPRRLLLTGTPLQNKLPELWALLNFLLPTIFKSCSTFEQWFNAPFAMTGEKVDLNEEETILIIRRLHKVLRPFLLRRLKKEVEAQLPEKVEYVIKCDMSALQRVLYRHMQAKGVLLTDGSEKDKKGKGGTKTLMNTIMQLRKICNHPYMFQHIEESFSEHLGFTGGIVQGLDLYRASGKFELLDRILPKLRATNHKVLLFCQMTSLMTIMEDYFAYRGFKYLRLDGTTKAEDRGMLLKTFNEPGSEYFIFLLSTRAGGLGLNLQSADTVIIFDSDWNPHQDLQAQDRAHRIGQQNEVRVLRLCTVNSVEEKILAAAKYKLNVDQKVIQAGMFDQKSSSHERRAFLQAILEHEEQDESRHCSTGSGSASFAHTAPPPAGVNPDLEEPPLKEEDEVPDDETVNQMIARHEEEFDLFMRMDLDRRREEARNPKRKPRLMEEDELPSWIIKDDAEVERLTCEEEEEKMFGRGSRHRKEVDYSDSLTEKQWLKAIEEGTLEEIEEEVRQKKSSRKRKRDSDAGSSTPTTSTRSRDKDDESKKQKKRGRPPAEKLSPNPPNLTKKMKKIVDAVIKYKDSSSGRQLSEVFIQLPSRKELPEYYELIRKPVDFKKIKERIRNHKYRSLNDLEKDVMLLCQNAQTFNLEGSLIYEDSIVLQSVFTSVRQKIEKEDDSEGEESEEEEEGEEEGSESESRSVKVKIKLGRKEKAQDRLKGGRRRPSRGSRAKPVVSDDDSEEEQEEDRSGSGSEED
Summary of the method: as §1

DC50 [1]	SMARCA2 % Degradation @ 1 μM ([1]; @ 1 μM)	DC50 [2]	inhibition at 1 µM ([2]; @ 1 μM)	SMARCA4 % Degradation @ 1 μM ([2]; @ 1 μM)	SMARCA2 % Degradation @ 1 μM ([1]; 1 μM)	inhibition at 1 µM ([2]; 1 μM)	SMILES
50 to 500 nM	++ (++=30-70%)	< 50 nM	30 to 70%	–	–	–	CC1CN(c2cc(-c3ccccc3O)nnc2N)CCN1c1ccnc(C#CCNC(=O)c2cc3ncccn3n2)n1 (stereo in doubt) [Compound P-81, (R)-N-(3-(4-(4-(3-amino-6-(2-hydroxyphenyl)pyridazin-4-yl)-2-methylpiperazin-1-yl)pyrimidin-2-yl)prop-2-yn-1-yl)pyrazolo[1,5-a]pyrimidine-2-carboxamide]
50 to 500 nM	++ (++=30-70%)	50 to 500 nM	30 to 70%	–	–	–	CC1(NCC#Cc2nccc(N3CCCN(c4cc(-c5ccccc5O)nnc4N)CC3)n2)COC1 [Compound P-278, 0-[6-amino-5-(4-{2-[3-(3-methyl-3-oxetanylamino)-1-propynyl]-4-pyrimidinyl}-1,4-diazepan-1-yl)-3-pyridazinyl]phenol]
500 to 5000 nM	??	500 to 5000 nM	30 to 70%	–	–	–	CNc1cc(N2CCCN(c3cc(-c4ccccc4O)nnc3N)CC2)nc(C#CCNC(=O)c2nn(C)c(C)c2C)n1 [Compound P-141, N-(3-(4-(4-(3-amino-6-(2-hydroxyphenyl)pyridazin-4-yl)-1,4-diazepan-1-yl)-6-(methylamino)pyrimidin-2-yl)prop-2-yn-1-yl)-1,4,5-trimethyl-1H-pyrazole-3-carboxamide]
50 to 500 nM	++ (++=30-70%)	50 to 500 nM	30 to 70%	–	–	–	CSCC#Cc1nccc(N2CCCN(c3cc(-c4ccccc4O)nnc3N)CC2)n1 [Compound P-323, 0-[6-amino-5-(4-{2-[3-(methylthio)-1-propynyl]-4-pyrimidinyl}-1,4-diazepan-1-yl)-3-pyridazinyl]phenol]
50 to 500 nM	++ (++=30-70%)	500 to 5000 nM	30 to 70%	–	–	–	Nc1nnc(-c2ccccc2O)cc1N1CCCN(c2ccnc(C#CCN3C[C@H]4C[C@@H]3CO4)n2)CC1 [Compound P-376, 0-(5-{4-[2-(3-{(1R,4R)-2-oxa-5-azabicyclo[2.2.1]hept-5-y1}-1-propynyl)-4-pyrimidinyl]-1,4-diazepan-1-y1}-6-amino-3-pyridazinyl)phenol]
50 to 500 nM	++ (++=30-70%)	50 to 500 nM	30 to 70%	–	–	–	Cn1nccc1OCC#Cc1nccc(N2CCCN(c3cc(-c4ccccc4O)nnc3N)CC2)n1 [Compound P-131, 2-(6-amino-5-(4-(2-(3-((1-methyl-1H-pyrazol-5-yl)oxy)prop-1-yn-1-yl)pyrimidin-4-yl)-1,4-diazepan-1-yl)pyridazin-3-yl)phenol]
50 to 500 nM	++ (++=30-70%)	50 to 500 nM	< 30%	–	–	–	C[C@@H]1CCN(c2cc(-c3ccccc3O)nnc2N)CCN1c1ccnc(C#CCN2CC(F)(F)[C@H]2C)n1 [Compound P-271, 0-{5-[(R)-4-(2-{3-[(R)-3,3-difluoro-2-methyl-1-azetidinyl]-1-propynyl}-4-pyrimidinyl)-5-methyl-1,4-diazepan-1-yl]-6-amino-3-pyridazinyl}phenol]
< 50 nM	+++ (+++=>70%)	< 50 nM	> 70%	–	–	–	CN(CC#Cc1nccc(N2CCCN(c3cc(-c4ccccc4O)nnc3N)CC2)n1)c1nc2ccccc2o1 [Compound P-107, 2-(6-amino-5-(4-(2-(3-(benzo[d]oxazol-2-yl(methyl)amino)prop-1-yn-1-yl)pyrimidin-4-yl)-1,4-diazepan-1-yl)pyridazin-3-yl)phenol]
50 to 500 nM	+++ (+++=>70%)	50 to 500 nM	–	++ (++=30-70%)	–	–	Nc1nnc(-c2ccccc2O)cc1N1CCCN(c2ccnc(C#CCN3C(=O)c4ccccc4C3=O)n2)CC1 [Compound P-375, 2-[3-(4-{4-[3-amino-6-(o-hydroxyphenyl)-4-pyridaziny1]-1,4-diazepan-1-yl}-2-pyrimidinyl)-2-propynyl]-1,3-isoindolinedione]
50 to 500 nM	++ (++=30-70%)	50 to 500 nM	30 to 70%	–	–	–	Nc1nnc(-c2ccccc2O)cc1N1CCC2(CCN(c3ccnc(C#CCNC(=O)c4cc5ncccn5n4)n3)C2)CC1 [Compound P-32, N-(3-(4-(8-(3-amino-6-(2-hydroxyphenyl)pyridazin-4-yl)-2,8-diazaspiro[4.5]decan-2-yl)pyrimidin-2-yl)prop-2-yn-1-yl)pyrazolo[1,5-a]pyrimidine-2-carboxamide]
500 to 5000 nM	++ (++=30-70%)	500 to 5000 nM	< 30%	–	–	–	CCNC(=O)NCC#Cc1nccc(N2CCCN(c3cc(-c4ccccc4O)nnc3N)CC2)n1 [Compound P-326, 0-[6-amino-5-(4-{2-[3-(3-ethylureido)-1-propynyl]-4-pyrimidinyl}-1,4-diazepan-1-yl)-3-pyridazinyl]phenol]
50 to 500 nM	++ (++=30-70%)	50 to 500 nM	–	++ (++=30-70%)	–	–	CC(C)(C)OC(=O)NC1CCN(CC#Cc2nccc(N3C4CCC3CN(c3cnnc(-c5ccccc5O)c3)C4)n2)CC1 [Compound P-368, tert-butyl-1-[3-(4-{3-[6-(o-hydroxyphenyl)-4-pyridazinyl]-3,8-diazabicyclo[3.2.1]oct-8-y1}-2-pyrimidinyl)-2-propynyl]-4-piperidylaminoformylate]
50 to 500 nM	+++ (+++=>70%)	50 to 500 nM	> 70%	–	–	–	Nc1nnc(-c2ccccc2O)cc1N1CCCN(c2ccnc(C#CCN3CCC(Cc4ccccc4)CC3)n2)CC1 [Compound P-337, 0-[6-amino-5-(4-{2-[3-(4-benzyl-1-piperidyl)-1-propynyl]-4-pyrimidinyl}-1,4-diazepan-1-yl)-3-pyridazinyl]phenol]
50 to 500 nM	–	50 to 500 nM	–	–	+ (+=<30%)	30 to 70%	C[C@@H]1CCN(c2cc(-c3ccccc3O)nnc2N)CCN1c1cc(C#CCN2CCCCC2)ncc1F [Compound P-414, 0-(5-{(R)-4-[5-fluoro-2-(3-piperidino-1-propynyl)-4-pyridyl]-5-methyl-1,4-diazepan-1-yl}-6-amino-3-pyridazinyl)phenol]
50 to 500 nM	–	50 to 500 nM	–	–	++ (++=30-70%)	< 30%	C[C@H]1CCN(c2cc(-c3ccccc3O)nnc2N)CCN1c1ccc(C#N)c(C#CCN2CC[C@H](F)C2)n1 [Compound P-411, 6-{(S)-4-[3-amino-6-(o-hydroxyphenyl)-4-pyridazinyl]-7-methyl-1,4-diazepan-1-yl}-2-{3-[(S)-3-fluoro-1-pyrrolidinyl]-1-propynyl} nicotinonitrile]
50 to 500 nM	+++ (+++=>70%)	50 to 500 nM	> 70%	–	–	–	Nc1nnc(-c2ccccc2O)cc1N1CCCN(c2ccnc(C#CCNc3nc4ccccc4o3)n2)CC1 [Compound P-26, 2-(6-amino-5-(4-(2-(3-(benzo[d]oxazol-2-ylamino)prop-1-yn-1-yl)pyrimidin-4-yl)-1,4-diazepan-1-yl)pyridazin-3-yl)phenol]
50 to 500 nM	++ (++=30-70%)	500 to 5000 nM	< 30%	–	–	–	CN(C)CC#Cc1nccc(N2C[C@H]3CC[C@@H](C2)[C@H]3Oc2cc(-c3ccccc3O)nnc2N)n1 [Compound P-156, o-{5-[(1R,5S,8r)-3-{2-[3-(dimethylamino)-1-propynyl]-4-pyrimidinyl}-3-azabicyclo[3.2.1]oct-8-yloxy]-6-amino-3-pyridazinyl}phenol]
50 to 500 nM	++ (++=30-70%)	50 to 500 nM	30 to 70%	–	–	–	N#CC1CN(CC#Cc2nccc(N3CCCN(c4cc(-c5ccccc5O)nnc4N)CC3)n2)CCO1 (stereo not drawn) [Compound P-310, 4-[3-(4-{4-[3-amino-6-(o-hydroxyphenyl)-4-pyridazinyl]-1,4-diazepan-1-y1}-2-pyrimidinyl)-2-propynyl]-2-morpholinecarbonitrile]
50 to 500 nM	++ (++=30-70%)	50 to 500 nM	30 to 70%	–	–	–	C[C@@H]1CCN(c2cc(-c3ccccc3O)nnc2N)CCN1c1ccnc(C#CCn2cccc2)n1 [Compound P-191, o-{5-[(R)-5-methyl-4-{2-[3-(1-pyrrolyl)-1-propynyl]-4-pyrimidinyl}-1,4-diazepan-1-yl]-6-amino-3-pyridaziny1}phenol]
< 50 nM	++ (++=30-70%)	> 5000 nM	–	–	–	–	CN(C)CC#Cc1nccc(N2CCC3(CC2)CCN(c2cc(-c4ccccc4O)nnc2N)C3)n1 [Compound P-344, 0-[6-amino-5-(8-{2-[3-(dimethylamino)-1-propynyl]-4-pyrimidinyl}-2,8-diaza-2-spiro[4.5]decyl)-3-pyridazinyl]phenol]

SMILES	DC50 [1]	SMARCA2 % Degradation @ 1 μM ([1]; @ 1 μM)	DC50 [2]	inhibition at 1 µM ([2]; @ 1 μM)	SMARCA4 % Degradation @ 1 μM ([2]; @ 1 μM)	SMARCA2 % Degradation @ 1 μM ([1]; 1 μM)	inhibition at 1 µM ([2]; 1 μM)
Nc1nnc(-c2ccccc2O)cc1N1CC2CCC(C1)N2c1ccnc(C#CCn2ccnc2)n1 [Compound P-290]	50 to 500 nM	++ (++=30-70%)	50 to 500 nM	< 30%	–	–	–
CC(C)(C)OC(=O)NCC#Cc1nccc(N2CC3CC(Oc4cc(-c5ccccc5O)nnc4N)CC3C2)n1 (stereo not drawn) [Compound P-221, 4-(3-{2-[3-(tert-butoxycarbonylamino)-1-propynyl]-4-pyrimidinyl}-3-azabicyclo[3.3.0]oct-7-yloxy)-6-(o-hydroxyphenyl)-3-pyridazinamine]	50 to 500 nM	+++ (+++=>70%)	50 to 500 nM	> 70%	–	–	–
